Assay results reported in patent publication US20240066136A1, “MODIFIED PROTEINS AND PROTEIN DEGRADERS” (Cullgen (Shanghai), Inc., priority 2020, published 2024).

These compounds were tested against Human DDB1 (Homo sapiens (Human), UniProt Q16531) (assay: Surface plasmon resonance (SPR) binding assay to immobilized His-DDB1). Conditions: SPR, DDB1 binding moieties with linkers and/or target protein binding moiety; read-out: Binding (Kd).
Summary of the method: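 Baculovirus-expressed His-DDB1 (High5 cells) amine-coupled to 11,000–13,000 RU on a CM5 chip; compounds injected in multi-cycle format without regeneration at 25° C in HBS-EP pH 7.4 (120 s association/dissociation). Double-referenced, solvent-corrected data fit to steady-state affinity model for KD.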

Chain of Human DDB1 (Q16531 whole entry): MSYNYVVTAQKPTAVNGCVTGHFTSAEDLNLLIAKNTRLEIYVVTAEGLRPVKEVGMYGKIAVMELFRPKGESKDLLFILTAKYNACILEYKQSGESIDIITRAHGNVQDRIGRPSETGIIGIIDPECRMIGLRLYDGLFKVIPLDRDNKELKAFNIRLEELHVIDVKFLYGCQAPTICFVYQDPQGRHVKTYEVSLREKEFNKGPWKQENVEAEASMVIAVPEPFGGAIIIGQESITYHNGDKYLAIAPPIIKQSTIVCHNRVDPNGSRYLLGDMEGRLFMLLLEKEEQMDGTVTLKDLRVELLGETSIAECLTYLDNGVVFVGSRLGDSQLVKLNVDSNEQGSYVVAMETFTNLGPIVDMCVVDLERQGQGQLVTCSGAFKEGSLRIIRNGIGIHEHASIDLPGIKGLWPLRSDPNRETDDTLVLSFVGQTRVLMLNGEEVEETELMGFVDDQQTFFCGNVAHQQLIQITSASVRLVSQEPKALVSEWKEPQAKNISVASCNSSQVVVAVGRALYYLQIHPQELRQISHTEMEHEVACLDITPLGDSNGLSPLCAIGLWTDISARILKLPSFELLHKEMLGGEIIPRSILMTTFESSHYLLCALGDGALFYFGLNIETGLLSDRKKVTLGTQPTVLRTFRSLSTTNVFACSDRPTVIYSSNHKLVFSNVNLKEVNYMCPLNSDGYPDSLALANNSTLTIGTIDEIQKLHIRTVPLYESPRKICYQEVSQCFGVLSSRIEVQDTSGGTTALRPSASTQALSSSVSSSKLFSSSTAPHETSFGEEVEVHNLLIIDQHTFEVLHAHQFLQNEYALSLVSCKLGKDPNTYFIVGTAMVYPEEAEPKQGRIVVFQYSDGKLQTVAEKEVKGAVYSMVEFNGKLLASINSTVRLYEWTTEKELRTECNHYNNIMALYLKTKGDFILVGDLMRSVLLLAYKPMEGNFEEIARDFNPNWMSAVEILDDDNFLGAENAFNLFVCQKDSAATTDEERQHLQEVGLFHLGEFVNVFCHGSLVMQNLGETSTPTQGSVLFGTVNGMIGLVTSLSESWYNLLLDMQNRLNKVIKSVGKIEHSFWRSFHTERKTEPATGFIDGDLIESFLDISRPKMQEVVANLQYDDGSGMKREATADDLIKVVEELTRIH

Q: Which Kd does the source give for Cc1nc(NC(=O)c2ccccc2NC(=O)CCCCCN)sc1[N+](=O)[O-] [BL-1, 2-(6-Aminohexanamido)-N-(4-methyl-5-nitrothiazol-2-yl)benzamide] here?
A: Its Kd is less than 20 µM.

Q: With Cc1nc(NC(=O)c2ccccc2NC(=O)CCOCCOCCOCCN)sc1[N+](=O)[O-] [BL-2, 2-(3-(2-(2-(2-Aminoethoxy)ethoxy)ethoxy)propanamido)-N-(4-methyl-5-nitrothiazol-2-yl)benzamide] as the compound, how does the Kd read?
A: The Kd was 20 to 100 µM.

Q: NCCOCCOCCOCCC(=O)Nc1ccccc1C(=O)Nc1ncc([N+](=O)[O-])s1 [BL-3, 2-(3-(2-(2-(2-Aminoethoxy)ethoxy)ethoxy)propanamido)-N-(5-nitrothiazol-2-yl)benzamide] was tested. Which Kd did it give?
A: The Kd was 20 to 100 µM.

Q: For CC(=O)Nc1cc(C(=O)NCCOCCOCCOCCN)ccc1C(=O)Nc1nc(C)c([N+](=O)[O-])s1 [BL-5, 2-acetamido-N^4-(2-(2-(2-(2-aminoethoxy)ethoxy)ethoxy)ethyl)-N^1-(4-methyl-5-nitrothiazol-2-yl)terephthalamide], which Kd is on record?
A: The Kd was 20 to 100 µM.

Q: How did the Kd turn out when CC(=O)Nc1cc(C(=O)NCCOCCOCCOCCN)ccc1C(=O)Nc1ncc([N+](=O)[O-])s1 [BL-6, 2-acetamido-N^4-(2-(2-(2-(2-aminoethoxy)ethoxy)ethoxy)ethyl)-N^1-(5-nitrothiazol-2-yl)terephthalamide] was run?
A: Its Kd is 20 to 100 µM.

Q: Which Kd does the source give for CC(=O)Nc1cc(NCCCCCCCN)ccc1C(=O)Nc1nc(C)c([N+](=O)[O-])s1 [BL-7, 2-Acetamido-4-((7-aminoheptyl)amino)-N-(4-methyl-5-nitrothiazol-2-yl)benzamide] here?
A: Its Kd is 20 to 100 µM.

Q: For CC(=O)Nc1cc(NCCOCCOCCOCCN)ccc1C(=O)Nc1nc(C)c([N+](=O)[O-])s1 [BL-8, 2-Acetamido-4-((2-(2-(2-(2-aminoethoxy)ethoxy)ethoxy)ethyl)amino)-N-(4-methyl-5-nitrothiazol-2-yl)benzamide], which Kd is on record?
A: Its Kd is 20 to 100 µM.

Q: With CC(=O)Nc1cc(NCCOCCOCCOCCN)ccc1C(=O)Nc1ncc([N+](=O)[O-])s1 [BL-9, 2-Acetamido-4-((2-(2-(2-(2-aminoethoxy)ethoxy)ethoxy)ethyl)amino)-N-(5-nitrothiazol-2-yl)benzamide] as the compound, how does the Kd read?
A: Its Kd is less than 20 µM.

Q: For CC(=O)Nc1cc(NCCCCN)ccc1C(=O)Nc1ccc([N+](=O)[O-])s1 [BL-20, 2-Acetamido-4-((4-aminobutyl)amino)-N-(5-nitrothiophen-2-yl)benzamide], which Kd is on record?
A: Its Kd is 20 to 100 µM.

Q: How did the Kd turn out when CC(=O)Nc1cc(NCCOCCNC(=O)CN2CCC(n3nc(N4CCCc5cc(-c6cnn(C)c6)c(C(F)F)cc54)c4c3CCN(C(C)=O)C4)CC2)ccc1C(=O)Nc1nc(C)c([N+](=O)[O-])s1 [D-7, 2-Acetamido-4-((2-(2-(2-(4-(5-acetyl-3-(7-(difluoromethyl)-6-(1-methyl-1H-pyrazol-4-yl)-3,4-dihydroquinolin-1 (2H)-yl)-4,5,6,7-tetrahydro-1H-pyrazolo[4,3-c]pyridin-1-yl)piperidin-1-yl)acetamido)ethoxy)ethyl)amino)-N-(4-methyl-5-nitrothiazol-2-yl)benzamide] was run?
A: Its Kd is 20 to 100 µM.

Q: For CC(=O)Nc1cc(NCCOCCOCCOCCOCCNC(=O)CN2CCN(c3cccc(-c4cnc5ccc(N6CCC[C@@H]6c6cccc(F)c6)nn45)n3)CC2)ccc1C(=O)Nc1nc(C)c([N+](=O)[O-])s1 [D-23, (R)-2-Acetamido-4-((1-(4-(6-(6-(2-(3-fluorophenyl)pyrrolidin-1-yl)imidazo[1,2-b]pyridazin-3-yl)pyridin-2-yl)piperazin-1-yl)-2-oxo-6,9,12,15-tetraoxa-3-azaheptadecan-17-yl)amino)-N-(4-methyl-5-nitrothiazol-2-yl)benzamide], which Kd is on record?
A: Its Kd is 20 to 100 µM.

Q: How did the Kd turn out when CC(=O)Nc1cc(NCCNC(=O)C[C@@H]2N=C(c3ccc(Cl)cc3)c3c(sc(C)c3C)-n3c(C)nnc32)ccc1C(=O)Nc1nc(C)c([N+](=O)[O-])s1 [D-26, (S)-2-Acetamido-4-((2-(2-(4-(4-chlorophenyl)-2,3,9-trimethyl-6H-thieno[3,2-f][1,2,4]triazolo[4,3-a][1,4]diazepin-6-yl)acetamido)ethyl)amino)-N-(4-methyl-5-nitrothiazol-2-yl)benzamide] was run?
A: The Kd was 20 to 100 µM.

Q: CC(=O)Nc1cc(NCCCCCCCNC(=O)C[C@@H]2N=C(c3ccc(Cl)cc3)c3c(sc(C)c3C)-n3c(C)nnc32)ccc1C(=O)Nc1nc(C)c([N+](=O)[O-])s1 [D-29, (S)-2-Acetamido-4-((7-(2-(4-(4-chlorophenyl)-2,3,9-trimethyl-6H-thieno[3,2-f][1,2,4]triazolo[4,3-a][1,4]diazepin-6-yl)acetamido)heptyl)amino)-N-(4-methyl-5-nitrothiazol-2-yl)benzamide] was tested. Which Kd did it give?
A: The Kd was 20 to 100 µM.

Q: With CC(=O)Nc1cc(NCCCCCCCCCCNC(=O)C[C@@H]2N=C(c3ccc(Cl)cc3)c3c(sc(C)c3C)-n3c(C)nnc32)ccc1C(=O)Nc1nc(C)c([N+](=O)[O-])s1 [D-31, (S)-2-Acetamido-4-((10-(2-(4-(4-chlorophenyl)-2,3,9-trimethyl-6H-thieno[3,2-f][1,2,4]triazolo[4,3-a][1,4]diazepin-6-yl)acetamido)decyl)amino)-N-(4-methyl-5-nitrothiazol-2-yl)benzamide] as the compound, how does the Kd read?
A: The Kd was 20 to 100 µM.

Q: How did the Kd turn out when CC(=O)Nc1cc(NCCOCCNC(=O)C[C@@H]2N=C(c3ccc(Cl)cc3)c3c(sc(C)c3C)-n3c(C)nnc32)ccc1C(=O)Nc1nc(C)c([N+](=O)[O-])s1 [D-32, (S)-2-Acetamido-4-((2-(2-(2-(4-(4-chlorophenyl)-2,3,9-trimethyl-6H-thieno[3,2-f][1,2,4]triazolo[4,3-a][1,4]diazepin-6-yl)acetamido)ethoxy)ethyl)amino)-N-(4-methyl-5-nitrothiazol-2-yl)benzamide] was run?
A: The Kd was 20 to 100 µM.

Q: With CC(=O)Nc1cc(NCCOCCOCCOCCOCCNC(=O)C[C@@H]2N=C(c3ccc(Cl)cc3)c3c(sc(C)c3C)-n3c(C)nnc32)ccc1C(=O)Nc1nc(C)c([N+](=O)[O-])s1 [D-35, (S)-2-Acetamido-4-((1-(4-(4-chlorophenyl)-2,3,9-trimethyl-6H-thieno[3,2-f][1,2,4]triazolo[4,3-a][1,4]diazepin-6-yl)-2-oxo-6,9,12,15-tetraoxa-3-azaheptadecan-17-yl)amino)-N-(4-methyl-5-nitrothiazol-2-yl)benzamide] as the compound, how does the Kd read?
A: Its Kd is 20 to 100 µM.

Q: CC(=O)Nc1cc(NCCOCCOCCOCCOCCOCCOCCNC(=O)C[C@@H]2N=C(c3ccc(Cl)cc3)c3c(sc(C)c3C)-n3c(C)nnc32)ccc1C(=O)Nc1nc(C)c([N+](=O)[O-])s1 [D-37, (S)-2-Acetamido-4-((1-(4-(4-chlorophenyl)-2,3,9-trimethyl-6H-thieno[3,2-f][1,2,4]triazolo[4,3-a][1,4]diazepin-6-yl)-2-oxo-6,9,12,15,18,21-hexaoxa-3-azatricosan-23-yl)amino)-N-(4-methyl-5-nitrothiazol-2-yl)benzamide] was tested. Which Kd did it give?
A: The Kd was 20 to 100 µM.

Q: Which Kd does the source give for CC(=O)Nc1cc(NCCOCCOCCNC(=O)CN2CCN(c3ccc(Nc4ncc5c(C)c(C(C)=O)c(=O)n(C6CCCC6)c5n4)nc3)CC2)ccc1C(=O)Nc1nc(C)c([N+](=O)[O-])s1 [D-45, 2-Acetamido-4-((2-(2-(2-(2-(4-(6-((6-acetyl-8-cyclopentyl-5-methyl-7-oxo-7,8-dihydropyrido[2,3-d]pyrimidin-2-yl)amino)pyridin-3-yl)piperazin-1-yl)acetamido)ethoxy)ethoxy)ethyl)amino)-N-(4-methyl-5-nitrothiazol-2-yl)benzamide] here?
A: The Kd was less than 20 µM.

Same assay, conditions: SPR, steady state affinity model, 25° C.; read-out: Binding (DDB1 binder activities, Kd)

Q: With Cc1cc(N2CCOCC2)ccc1C(=O)Nc1ncc([N+](=O)[O-])s1 [B-162, 2-Methyl-4-morpholino-N-(5-nitrothiazol-2-yl)benzamide] as the compound, how does the Kd read?
A: Its Kd is greater than 100 µM.

Q: How did the Kd turn out when Cc1cc(N2CCN(C)CC2)ccc1C(=O)Nc1ncc([N+](=O)[O-])s1 [B-163, 2-Methyl-4-(4-methylpiperazin-1-yl)-N-(5-nitrothiazol-2-yl)benzamide] was run?
A: Its Kd is greater than 100 µM.

Q: Which Kd does the source give for Cc1cc(C(C)C)ccc1C(=O)Nc1ncc([N+](=O)[O-])s1 [B-164, 4-Isopropyl-2-methyl-N-(5-nitrothiazol-2-yl)benzamide] here?
A: The Kd was greater than 100 µM.

Q: With CCCCNc1ccc(C(=O)Nc2ncc([N+](=O)[O-])s2)c(C)c1 [B-165, 4-(Butylamino)-2-methyl-N-(5-nitrothiazol-2-yl)benzamide] as the compound, how does the Kd read?
A: Its Kd is 20 to 100 µM.

Q: With CNc1ccc(C(=O)Nc2ncc([N+](=O)[O-])s2)c(C)c1 [B-166, 2-Methyl-4-(methylamino)-N-(5-nitrothiazol-2-yl)benzamide] as the compound, how does the Kd read?
A: The Kd was 20 to 100 µM.

Q: With Cc1cc(N(C)C)ccc1C(=O)Nc1ncc([N+](=O)[O-])s1 [B-167, 4-(Dimethylamino)-2-methyl-N-(5-nitrothiazol-2-yl)benzamide] as the compound, how does the Kd read?
A: The Kd was greater than 100 µM.

Q: With CCNc1cccc(OCC)c1C(=O)Nc1ncc([N+](=O)[O-])s1 [B-168, 2-Ethoxy-6-(ethylamino)-N-(5-nitrothiazol-2-yl)benzamide] as the compound, how does the Kd read?
A: Its Kd is greater than 100 µM.

Q: CCNc1cccc(C)c1C(=O)Nc1ncc([N+](=O)[O-])s1 [B-169, 2-(Ethylamino)-6-methyl-N-(5-nitrothiazol-2-yl)benzamide] was tested. Which Kd did it give?
A: Its Kd is 20 to 100 µM.

Q: CC(=O)Oc1cccc(C)c1C(=O)Nc1ncc([N+](=O)[O-])s1 [B-170, 3-Methyl-2-((5-nitrothiazol-2-yl)carbamoyl)phenyl acetate] was tested. Which Kd did it give?
A: The Kd was greater than 100 µM.

Q: Cc1cc(F)ccc1C(=O)Nc1ncc([N+](=O)[O-])s1 [B-171, 4-Fluoro-2-methyl-N-(5-nitrothiazol-2-yl)benzamide] was tested. Which Kd did it give?
A: Its Kd is 20 to 100 µM.

Q: How did the Kd turn out when Cc1ccc(C(=O)Nc2ncc([N+](=O)[O-])s2)c(C)c1 [B-172, 2,4-Dimethyl-N-(5-nitrothiazol-2-yl)benzamide] was run?
A: Its Kd is 20 to 100 µM.

Q: With Cc1ccc(C)c(C(=O)Nc2ncc([N+](=O)[O-])s2)c1 [B-174, 2,5-Dimethyl-N-(5-nitrothiazol-2-yl)benzamide] as the compound, how does the Kd read?
A: Its Kd is less than 20 µM.

Q: Which Kd does the source give for Cc1cnc(NC(=O)c2ccccc2C)s1 [B-175, 2-Methyl-N-(5-methylthiazol-2-yl)benzamide] here?
A: The Kd was less than 20 µM.

Q: For Cc1ccccc1C(=O)Nc1nccs1 [B-176, 2-Methyl-N-(thiazol-2-yl)benzamide], which Kd is on record?
A: The Kd was less than 20 µM.
